For assay [1], the system named is E15 rat cortical neurones. In words: Cell death by TUNEL in E15 rat cortical neurones (FIG. 3). The assay is classed as cell-based. The procedure: (§1) Cortical and corticostriatal neurons are prepared, as described previously (Lafont et al., Development, 1992, 114, 17–29, ), from E14, mouse embryos or from E15, rat embryos.
(§2) Briefly, the dissociated cells are plated out onto polyornithine-coated plastic plates (ELISA-type plates) at a density of 5,000, cells per well, and incubated in a suitable medium supplemented with hormones, proteins and salts.
(§3) All the peptides are added to the cells two hours after the latter have been plated out. The internalization is verified by confocal microscopy after immunolabeling (Pmyc) or detection of biotin (Jcasp and its variants).
(§4) The internalization and the intracellular stability of Jcasp, Pmyc and J(Y→D)Casp are identical. The irreversible caspase inhibitors zVAD-fmk (100 μM) and zDEVD-fmk (200 μM) (Calbiochem, France) are added 1 hour before addition of the peptide.
(§5) The apoptotic cells are detected by TUNEL labeling (fluorescein or alkaline phosphatase kits) as described by the supplier (Roche Diagnostics, France).
(§6) For each condition, 600 to 800 cells are counted three times.
(§7) The statistical analysis is carried out with ANOVA and the Scheffé test.
Peptide Jcasp induces neuronal apoptosis. Two hours after plating out onto plates, peptide Jcasp is added to the E15 rat cortical neurones and cell death is evaluated by the TUNEL effect, 24 hours later.

The subject of assay [2] is actin cleavage by caspase 3 in neurons. In words: Quantification of actin cleavage by caspase 3 using anti-fractin antibody (FIGS. 4 and 5). The assay is classed as cell-based, mouse or rat. As to conditions: for actin cleavage (percentage of fractin-positive neurons): 24 h, triplicate. Here is the method:
(§8) For the immunodetection of the fractin or of the p20 subunit of caspase 3 (Pharmingen), the cells are fixed with 4% paraformaldehyde (30 minutes, room temperature), washed three times with PBS and saturated for 1 hour at 37° C. with 10% fetal calf serum (FCS) in PBS containing 0.2% of Triton X 100.
(§9) Purified primary antibodies directed against fractin or p20 are diluted (in PBS-FCS) 2000-fold and 500-fold, respectively, incubated overnight at 4° C. washed three times and incubated with biotinylated anti-rabbit antibodies.
(§10) The detection is carried out using the alkaline phosphatase amplification kit (Vector, France).
as §6, §7
FIGS. 4 and 5 illustrate the quantification of the actin cleavage by caspase 3 using the anti-fractin antibody, by immunocytochemistry after fixing the cells with paraformaldehyde (F. Yang et al., Am. J. Pathol., 1998, 152, 2, 379–389). The anti-fractin antibody specifically recognizes actin cleaved by caspase 3. The percentage of fractin-positive neurons was determined after 24 h of internalization of the peptides, by counting approximately 1000 cells per well in triplicate.

For assay [3], the system named is p20 subunit of caspase 3 in mouse cortical embryonic neurons. In words: Immunoreactivity for the p20 subunit of caspase 3 (FIGS. 6 and 7). Type of assay: cell-based. To be noted: inhibitor with peptide Jcasp. Here is the method: as §8, §9, §10, §6, §7
In order to verify that caspase 3 is effectively involved in the apoptosis caused by peptide Jcasp, use is made of the fact that this enzyme (caspase 3) is synthesized in the form of a propetide (37 kDa) which, after stimulation, generates an active subunit of 17–22 kDa (p20).
Immunoreactivity for p20 is examined in mouse cortical embryonic neurons cultured for 24 hours in the presence of several peptides. FIG. 6 illustrates the immunoreactivity for the p20 protein and FIG. 7 quantifies the induction of the p20.

The test system of assay [4] is neurons (primary culture). In words: Quantification of DNA cleavage by TUNEL 24 h after internalization of the peptides (FIG. 2). The assay is classed as cell-based, mouse or rat. As to conditions: for DNA cleavage (percentage of TUNEL-positive cells): triplicate, p<0.0001. The procedure: as §1, §2, §3, §4, §5, §6, §7
Peptide G was internalized at 2 concentrations (1X and 2X) and peptide Gcasp (or Jcasp) was internalized at the 1X concentration, in the presence or absence of the caspase inhibitor zVAD.
Each condition was tested in triplicate. The percentage of positive cells was evaluated after 24 h by counting approximately 1000 cells per well.

The subject of assay [5] is cortical and corticostriatal neurons. In words: Internalization of peptides into primary cultures of neurons: toxicity, neurite growth, neuronal death. The assay is classed as cell-based, mouse or rat. The procedure:
as §1, §2
The internalization conditions are the same as those described in International Application WO 97/12912.
as §3

Results on six molecules are retold here after patent US7115380B2, “Applications of peptides derived from the cytoplasmic domain of amyloid precursor protein (APP)” (Centre National de la Recherche Scientifique, priority 1999, dated 2006).

Where a SMILES comes first, the peptide text is derived from it. The star is where a group is joined. Cbz = O=C(OCc1ccccc1)*; CH2F = FC*

With `COC(=O)CC[C@H](NC(=O)[C@H](CC(=O)OC)NC(=O)OCc1ccccc1)C(=O)N[C@H](C(=O)N[C@@H](CC(=O)OC)C(=O)CF)C(C)C` [zDEVD-fmk], in assay [1] (inhibitor at 200 μM, added 1 hour before peptide), the “effect on basal cell death (TUNEL)” value was “weak effect”. In assay [1] (inhibitor at 200 μM, Jcasp at 1.2 μM and 2.4 μM), the “inhibition of DNA fragmentation induced by peptide Jcasp” value is on record as “inhibits the DNA fragmentation”. The “effect on actin cleavage induced by peptide Jcasp (FIG. 5)” value in assay [2] (inhibitor with peptide Jcasp) is “inhibits the actin cleavage”. In addition, in assay [3], the “effect on activation of p20 by peptide Jcasp” value is listed as “significantly decreases the activation of p20”.
For `COC(=O)C[C@H](NC(=O)[C@H](C)NC(=O)[C@@H](NC(=O)OCc1ccccc1)C(C)C)C(=O)CF` [zVAD-fmk] (Cbz-Val-Ala-Asp(OMe)-CH2F), in assay [4] (with peptide G or Jcasp), the “effect of caspase inhibitor on peptide-induced increase in DNA cleavage (TUNEL)” value was “inhibits this increase in cleavage”. Besides, the “effect on endogenous cleavage of actin by caspases of neurones” value in assay [2] (inhibitor alone) was “inhibits all endogenous cleavage”. Further, the “effect on the peptide-induced increase in actin cleavage” value in assay [2] (with G1X, G2X and Gcasp1X, p<0.0001, inhibition not complete) is listed as “significantly inhibits the increase”.
Consider “Pmyc: SEQ ID NO: 5 + peptide corresponding to the MYC sequence [EQKLISEED]; no relation to APP (KQIKIWFQNRRMKWKKEQKLISEED; listed as Homo sapiens)”, for which the “DNA fragmentation / number of TUNEL-positive cells” value in assay [1] (24 hours, concentration not given) is reported as “no effect”.
As for “peptide E: SEQ ID NO: 5 + domain E (VDAAVTPEE, SEQ ID NO: 6), APP positions 663–671 (KQIKIWFQNRRMKWKKVDAAVTPEE; listed as Homo sapiens)”, the “effect on neurite growth after internalization” value (“effect on neurite growth” below) in assay [5] (internalization into neurons) was “no effect”.
Turning to “peptide G: KQYTSIHHG, APP positions 651–659 (SEQ ID NO: 2, Y0 null), tested with Y1 = penetratin SEQ ID NO: 5 (KQIKIWFQNRRMKWKKKQYTSIHHG; listed as Homo sapiens)”, in assay [5] (concentrations lower than one μM), the “effect on neurite growth” value was “reproduces the effects of the intact C-terminal domain”. The “pro-apoptotic nature after internalization” value in assay [5] (internalized into neurons) is “pro-apoptotic”. The “DNA cleavage (percentage of TUNEL-positive cells)” value in assay [4] (concentration 1X) and in assay [4] (concentration 2X) was “significant increase” each time. For the same molecule, the “actin cleavage (percentage of fractin-positive neurons)” value in assay [2] (1X) is recorded as “significant increase”; in assay [2] (2X, p<0.0001), “significant increase”.
Take “peptide H: SEQ ID NO: 5 + domain H (NGYENPTYK, SEQ ID NO: 7), APP positions 680–688 (KQIKIWFQNRRMKWKKNGYENPTYK; listed as Homo sapiens)”: in assay [5] (internalization into neurons), the “effect on neurite growth” value is “no effect”.
